According to patent publication US5760036A, “Aminediol protease inhibitors” (E. R. Squibb & Sons, Inc., priority 1995, dated 1998):
pIC50: −log10 of the molar value. Where two headings read alike, the source gives them in different places.

Legend:
[1] = system: RF strain of HIV (CEM-SS cells); experiment: Cell Culture Anti-HIV Activity (cell viability, formazan); format: cell-based; conditions: Human immunodeficiency virus 1, CEM-SS, 144 h, CEM-SS cells, RF strain of HIV, multiplicity of infection 0.04, 6 days at 37° C., 450 nm; read-out: HIV (CEM Cells) IC50
Summary of the method: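 Half-log compound dilutions added to CEM-SS cells (5000/well) carrying HIV RF (MOI 0.04), 6 days, 37° C. Cell protection measured as formazan from tetrazolium, A450. IC50: drug level restoring infected-cell formazan to 50% of the uninfected untreated control.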

HIV protease = biological target: T1, HIV protease (Human immunodeficiency virus type 1 group M subtype B, UniProt P04585); experiment: HIV Protease Assay; format: biochemical
T1 construct: and purified protease
Summary of the method: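 At a single final concentration of 10 μM (4% DMSO), inhibitors were added to a 30-minute, 37° C reaction of purified enzyme with 450 μM H2N-Val-Ser-Gln-Asn-(β-naphthyl-alanine)-Pro-Val-Ile-OH at pH 5.5 (sodium acetate, BSA). Hydrolysis was quantified by reverse-phase HPLC with 220 nm detection after acid quench.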

[2] = pH 5.5, 10 μM inhibitor, 4% DMSO, 450 μM substrate, pH 5.5, 30 minutes at 37° C., RP-HPLC, read-out: HIV Protease % Inhibition at 10 μM

| inhibition at 10 µM (HIV protease; [2]) | inhibition at 10 µM (HIV protease; pH 5.5, read-out: HIV Protease % Inhibition at 10 μM) | SMILES | pIC50 [1] |
| --- | --- | --- | --- |
| 100% | – | CC(C)[C@H](NC(=O)OCC1=Cc2ccccc2C1)C(=O)N[C@@H](Cc1ccccc1)[C@H](O)CNC[C@@H](O)[C@H](Cc1ccccc1)NC(=O)OC(C)(C)C (relative stereo) [Compound 280, [1R*, 2S* (2S*, 3R*)]-N-[3-[[3-[[(1,1-Dimethylethoxy)carbonyl]amino]-2-hydroxy-4-phenylbutyl]amino]-2-hydroxy-1-(phenylmethyl)propyl]-N^2-[[(1H-inden-2-yl)methoxy]carbonyl]-L-valinamide] | 7.30 |
| 99% | – | CC(C)[C@H](NC(=O)[C@H](O)Cc1ccccc1)C(=O)N[C@@H](Cc1ccccc1)[C@H](O)CNC[C@@H](O)[C@H](Cc1ccccc1)NC(=O)OC(C)(C)C [Compound 78, [S-[1R*,2S*[2S*,3R*,N1S*]-N-[3-[[3-[[(1,1-Dimethylethoxy)carbonyl]amino]-2-hydroxy-4-phenylbutyl]amino]-2-hydroxy-1-(phenylmethyl)[propyl]-N^2-(2-hydroxy-1-oxo-3-phenyl-propyl)-L-valinamide] | 6.80 |
| – | 99% | CC(C)(C)OC(=O)N[C@@H](Cc1ccccc1)[C@H](O)CNC[C@@H](O)[C@H](Cc1ccccc1)NC(=O)C(C)(O)C(C)(C)CO (single isomer, unassigned; isomer a) [Compound 356, [1S-[1R*,2S*(2S*,3R*)]]-[3-[3-[2,4-Dihydroxy-2,3,3-trimethyl-1-oxobutyl)amino]-2-hydroxy-4-phenylbutyl]amino]-2-hydroxy-1-(phenylmethyl)propyl]carbamic acid, 1,1-dimethylethyl ester, isomer A] | 6.92 |
| 98% | – | CC(C)(C)OC(=O)N[C@@H](Cc1ccccc1)[C@H](O)CNC[C@@H](O)[C@H](Cc1ccccc1O)NC(=O)OC(C)(C)C [Compound 350, [1S-[1R*,2S*(2S*,3R*)]]-[3-[[3-[[(1,1-Dimethylethoxy)carbonyl]amino]-2-hydroxy-4-(2-hydroxyphenyl)butyl]amino]-2-hydroxy-1-(phenylmethyl)propyl]carbamic acid, 1,1-dimethylethyl ester] | 6.30 |
| 99% | – | CC(C)(C)OC(=O)N[C@@H](Cc1ccccc1)[C@H](O)CNC[C@@H](O)[C@H](Cc1ccccc1)NC(=O)C(NC(=O)OCc1ccccc1)C(C)(C)O (single isomer, unassigned; isomer b) [Compound 302, [1S-[1R*,2S*(2S*,3R*)]]-[1-[[[3-[[(1,1-Dimethylethoxy)carbonyl]amino]-2-hydroxy-4-phenylbutyl]amino]-2-hydroxy-1-(phenylmethyl)propyl]amino]carbonyl]-2-hydroxy-2-methylpropyl]carbamic acid, phenylmethyl ester, isomer B] | 6.60 |
| 99% | – | COC(=O)N[C@H](C(=O)N[C@@H](Cc1ccccc1)[C@H](O)CNC[C@@H](O)[C@H](Cc1ccccc1)NC(=O)OC(C)(C)CO)C(C)(C)C (relative stereo) [Compound 359, [1R*,2S*(2S*,3R*)]-N-[2-Hydroxy-3-[[2-hydroxy-3-[[(2-hydroxy-1,1-dimethylethoxy)-carbonyl]amino]-4-phenylbutyl]amino]-1-(phenylmethyl)propyl]-N^2-(2-methoxycarbonyl)-3-methyl-L-valinamide] | 6.25 |
| 99% | – | CC(C)(C)OC(=O)N[C@@H](Cc1ccccc1)[C@H](O)CNC[C@@H](O)[C@H](Cc1ccccc1)NC(=O)[C@@H](NC(=O)OCc1nc2ccccc2s1)C(C)(C)C [Compound 292, [S-[1R*,2S*(2S*,3R*)]]-[2,2-Dimethyl-1-[[[3-[[3-[[(1,1-dimethylethoxy)carbonyl]amino]-2-hydroxy-4-phenylbutyl]amino]-2-hydroxy-1-(phenylmethyl)propyl]amino]carbonyl]propyl]carbamic acid, (2-benzothiazolyl)methyl ester] | 6.77 |
| 98% | – | CC(C)[C@H](NC(=O)CC(O)CO)C(=O)N[C@@H](Cc1ccccc1)[C@H](O)CNC[C@@H](O)[C@H](Cc1ccccc1)NC(=O)OC(C)(C)C (relative stereo) [Compound 254, [1R*,2S*(2S*,3R*)]-N-[3-[[3-[[(1,1-Dimethylethoxy)carbonyl]amino]-2-hydroxy-4-phenylbutyl]amino]-2-hydroxy-1-(phenylmethyl)propyl]-N^2-(3,4-dihydroxy-1-oxobutyl)-L-valinamide] | 4.77 |
| 98% | – | COc1ccccc1C[C@H](NC(=O)OC(C)(C)C)[C@H](O)CNC[C@@H](O)[C@H](Cc1ccccc1)NC(=O)OC(C)(C)C [Compound 349, [1S-[1R*,2S*(2S*,3R*)]]-[3-[[3-1,1-Dimethylethoxy)-carbonyl]amino]-2-hydroxy-4-(2-methoxyphenyl)butyl]-amino]-2-hydroxy-1-(phenylmethyl)propyl]carbamic acid, 1,1-dimethylethyl ester] | 6.43 |
| 99% | – | C[C@H](NC(=O)OCc1ccccc1)C(=O)N[C@@H](Cc1ccccc1)[C@H](O)CNC[C@@H](O)[C@H](Cc1ccccc1)NC(=O)OC(C)(C)C (relative stereo) [Compound 243, [1R*,2S*(2S*,3R*)]-N-[3-[[3-[[(1,1-Dimethylethoxy)carbonyl]amino]-2-hydroxy-4-phenylbutyl]-2-hydroxy-1-(phenylmethyl)propyl]-N^2-[(phenylmethoxy)carbonyl]-L-alaninamide] | 7.10 |
| 93% | – | CC(C)(C)OC(=O)N[C@@H](Cc1ccccc1)[C@H](O)CNC[C@@H](O)[C@H](Cc1ccccc1)NC(=O)OC1COC1 [Compound 319] | 5.86 |
| 98% | – | CC(C)(C)OC(=O)N[C@@H](Cc1ccccc1)[C@H](O)CNC[C@@H](O)[C@H](Cc1ccccc1)NC(=O)OC1(CO)CCC1 [Compound 303, [1S-(1R*,2S*)]-[Iminobis[2-hydroxy-1-(phenylmethyl)-3,1-propanediyl]]bis[[carbamic acid], 1-(hydroxymethyl)cyclobutyl 1,1-dimethylethyl ester] | 7.15 |
| 99% | – | CC(C)(C)OC(=O)N[C@@H](Cc1ccccc1)[C@H](O)CNC[C@@H](O)[C@H](Cc1ccc(OCCCN2CCOCC2)cc1)NC(=O)OC(C)(C)C [Compound 201, [1S-[1R*,2S*(2S*,3R*)]]-[3-[[3-[[(1,1-Dimethylethoxy)carbonyl]aminol-2-hydroxy-4-[4-[3-(4-morpholinyl)propoxy]phenyl]butyl]amino]-2-hydroxy-1-(phenylmethyl)propyl]carbamic acid, 1,1-dimethylethyl ester] | 7.40 |
| 100% | – | COC(=O)N[C@H](C(=O)N[C@@H](Cc1ccccc1)[C@H](O)CNC[C@@H](O)[C@H](Cc1ccccc1)NC(=O)[C@@H](NC(=O)OC)C(C)(C)C)C(C)(C)C (relative stereo) [Compound 324, 1S-(1S*,2R*)-N, N'-Iminobis[2-hydroxy-1-(phenylmethyl)-3,1-propanediyl]bis(imino)bis[1-(1,1-dimethylethyl)-2-oxo-2,1-ethanediyl]]biscarbamic acid, dimethyl ester] | 6.66 |
| 100% | – | CC(C)(C)OC(=O)N[C@@H](Cc1ccccc1)[C@H](O)CNC[C@@H](O)[C@H](Cc1ccc(OCCCc2nc3ccccc3o2)cc1)NC(=O)OC(C)(C)C [Compound 244, [1S-[1R*,2S*(2S*,3R*)]]-[3-[[3-[[(1,1-Dimethylethoxy)carbonyl]amino]-2-hydroxy-4-[4-[3-[(2-benzoxazolyl)-propoxy]phenyl]butyl]amino]-2-hydroxy-1-(phenylmethyl)propyl]carbamic acid, 1,1-dimethylethyl ester] | 5.82 |
| 3% | – | CN(CC(=O)[C@H](Cc1ccccc1)NC(=O)OC(C)(C)C)C[C@H](O)[C@H](Cc1ccccc1)NC(=O)OC(C)(C)C [Compound 199, [1S-[1R*(2R*,3R*)]]-3-[[3[[-(1,1-Dimethylethoxy)carbonyl]-amino]-2-hydroxy-4-phenylbutyl]-methylamino]-2-oxo-1-(phenylmethyl)-propyl]carbamic acid, 1,1-dimethylethyl ester] | < 4.77 |
| 98% | – | COCCOc1ccc(C[C@H](NC(=O)OC(C)(C)C)[C@H](O)CNC[C@@H](O)[C@H](Cc2ccccc2)NC(=O)OC(C)(C)C)cc1 [Compound 224, [1S-[1R*,2S*(2S*,3R*)]]-[3-[[3-[[(1,1-Dimethylethoxy)carbonyl]amino]-2-hydroxy-4-[4-(2-methoxyethoxy)phenyl]butyl]amino]-2-hydroxy-1-(phenylmethyl)propyl]carbamic acid, 1,1-dimethylethyl ester] | 7.40 |
| 45% | – | CC[C@H](C)[C@H](NC(=O)OC(C)(C)C)[C@H](O)CNC[C@@H](O)[C@@H](NC(=O)OC(C)(C)C)[C@@H](C)CC [Compound 13, [R-(R*,S*)]-[Iminobis[2-hydroxy-1-(1-methylpropyl)-3,1-proyanediyl]]biscarbamic acid, 1,1-dimethylethyl ester] | 5.28 |
| 99% | – | CC(C)(C)OC(=O)N[C@@H](Cc1ccccc1)[C@H](O)CNC[C@@H](O)[C@H](Cc1ccccc1)NC(=O)C(NC(=O)OCc1ccccc1)C(F)(F)F (stereo partly drawn) [Compound 328, [1S-[1R*,2S*(2S*,3R*)]]-[2-[[3-[[3-[[(1,1-Dimethylethoxy)carbonyl]amino]-2-hydroxy-4-phenylbutyl]amino]-2-hydroxy-1-(phenylmethyl)propyl]amino]-2-oxo-1-(trifluoromethyl)ethyl]carbamic acid, phenylmethyl ester] | 6.27 |
